Measurements published in patent publication US7141591B2, “1,2,4-oxadiazole derivatives as hPPAR alpha agonists” (SmithKline Beecham Corporation, priority 2000, dated 2006).

What was measured:
human PPAR gamma = biological target: T1, human PPAR gamma (Homo sapiens, UniProt P37231); test: Transient transfection (transactivation) assay in CV-1 cells, hPPAR gamma; type: cell-based; conditions: PPAR transactivation activity, GAL4 chimera, concentration giving 50% of maximum activity, read-out: human γEC50
T1 construct: expressed in transfected cells; host or cells: CV-1 cells
T1 sequence (P37231 238-503 limits assumed): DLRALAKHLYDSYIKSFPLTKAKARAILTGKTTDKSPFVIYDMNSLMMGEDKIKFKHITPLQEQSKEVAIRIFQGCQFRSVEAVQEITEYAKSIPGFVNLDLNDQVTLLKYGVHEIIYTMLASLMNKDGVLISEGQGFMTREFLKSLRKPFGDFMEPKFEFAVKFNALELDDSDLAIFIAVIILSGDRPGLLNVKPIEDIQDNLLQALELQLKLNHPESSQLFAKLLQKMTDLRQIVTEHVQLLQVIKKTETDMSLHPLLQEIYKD
From the text: (§1) Compounds were screened for functional potency in transient transfection assays in CV-1 cells for their ability to activate the PPAR subtypes (transactivation assay). A previously established chimeric receptor system was utilized to allow comparison of the relative transcriptional activity of the receptor subtypes on the same target gene and to prevent endogenous receptor activation from complicating the interpretation of results. See, for example, Lehmann, J. M.; Moore, L. B.; Smith-Oliver, T. A.; Wilkison, W. O.; Willson, T. M.; Kliewer, S. A., An antidiabetic thiazolidinedione is a high affinity ligand for peroxisome proliferator-activated receptor γ (PPARγ), J. Biol. Chem., 1995, 270, 12953–6. The ligand binding domains for murine and human PPAR alpha, PPAR gamma, and PPAR delta were each fused to the yeast transcription factor GAL4 DNA binding domain. CV-1 cells were transiently transfected with expression vectors for the respective PPAR chimera along with a reporter construct containing five copies of the GAL4 DNA binding site driving expression of secreted placental alkaline phosphatase (SPAP) and β-galactosidase. After 16 h, the medium was exchanged to DME medium supplemented with 10% delipidated fetal calf serum and the test compound at the appropriate concentration. After an additional 24 h, cell extracts were prepared and assayed for alkaline phosphatase and β-galactosidase activity. Alkaline phosphatase activity was corrected for transfection efficiency using the β-galactosidase activity as an internal standard (see, for example, Kliewer, S. A., et. al. Cell 83, 813–819 (1995)). Rosiglitazone (BRL 49653) was used as a positive control in the hPPAR gamma assay. The positive control in the hPPAR alpha assays was 2-methyl-2-[4-{[(4-methyl-2-[4-trifluoromethylphenyl]-thiazol-5-yl-carbonyl)amino]methyl}-phenoxy]propionic acid. The positive control for PPAR delta assays was 2-{2-methyl-4-[({4-methyl-2-{trifluoromethyl)phenyl]-1,3-thiazol-5-yl}methyl)sulfanyl]phenoxy}acetic acid.

human PPAR alpha = biological target: T2, human PPAR alpha (Homo sapiens, UniProt Q07869); test: Transient transfection (transactivation) assay in CV-1 cells, hPPAR alpha; type: cell-based; conditions: PPAR transactivation activity, GAL4 chimera, concentration giving 50% of maximum activity, read-out: human αEC50
T2 construct: expressed in transfected cells; host or cells: CV-1 cells
T2 sequence (Q07869 239-466 limits assumed): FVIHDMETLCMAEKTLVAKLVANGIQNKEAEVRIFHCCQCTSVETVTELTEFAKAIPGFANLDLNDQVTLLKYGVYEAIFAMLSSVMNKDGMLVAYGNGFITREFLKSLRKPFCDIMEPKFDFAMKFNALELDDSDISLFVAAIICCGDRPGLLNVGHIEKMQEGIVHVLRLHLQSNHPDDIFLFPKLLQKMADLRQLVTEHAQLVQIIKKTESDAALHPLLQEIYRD
From the text: as §1

human PPAR delta = biological target: T3, human PPAR delta (Homo sapiens, UniProt Q03181); test: Transient transfection (transactivation) assay in CV-1 cells, hPPAR delta; type: cell-based; conditions: PPAR transactivation activity, GAL4 chimera, concentration giving 50% of maximum activity, read-out: human δEC50
T3 construct: expressed in transfected cells; host or cells: CV-1 cells
T3 sequence (Q03181 211-439 limits assumed): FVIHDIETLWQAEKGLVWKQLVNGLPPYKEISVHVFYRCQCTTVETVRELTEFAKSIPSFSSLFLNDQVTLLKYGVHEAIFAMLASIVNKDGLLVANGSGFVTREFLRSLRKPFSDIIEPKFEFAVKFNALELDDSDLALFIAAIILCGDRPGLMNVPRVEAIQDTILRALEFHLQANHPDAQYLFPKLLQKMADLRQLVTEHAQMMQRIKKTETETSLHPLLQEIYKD
From the text: as §1

| Structure (SMILES) | melting point | EC50 (human PPAR gamma) | EC50 (human PPAR alpha) | EC50 (human PPAR delta) |
| --- | --- | --- | --- | --- |
| Cc1cc(OCc2nc(-c3ccc(C(C)(C)C)cc3)no2)ccc1OC(C)(C)C(=O)O [Example 10, 2-methyl-2-[4-(3-(4-tert-butyl-phenyl)-[1,2,4]oxadiazol-5-ylmethoxy]-2-methyl-phenoxy]-propionic acid] | 155 to 157 °C | 11400 nM | 24 nM | – |
| Cc1cc(OCc2nc(-c3ccc(C(C)C)cc3)no2)ccc1OC(C)(C)C(=O)O [Example 11] | 138 °C | 10000 nM | 59 nM | 9310 nM |
| Cc1cc(OCc2nc(-c3ccc(C(F)(F)F)cc3)no2)ccc1OC(C)(C)C(=O)O [Example 12, 2-methyl-2-{4-[3-(4-trifluoromethyl-phenyl)-[1,2,4]oxadiazol-5-ylmethoxy]-2-methyl-phenoxy}-propionic acid] | 170 °C | 4300 nM | 36 nM | 311 nM |
| CC(C)(Oc1ccc(OCc2nc(-c3ccc(C(C)(C)C)cc3)no2)cc1)C(=O)O [Example 13, 2-methyl-2-[4-(3-(4-tert-butyl-phenyl)-[1,2,4]oxadiazol-5-ylmethoxy]-phenoxy]-propionic acid] | 138 to 140 °C | 850 nM | 92 nM | – |
| CC(C)c1ccc(-c2noc(COc3ccc(OC(C)(C)C(=O)O)cc3)n2)cc1 [Example 14] | 117 °C | 10000 nM | 77 nM | – |
| CC(C)(Oc1ccc(OCc2nc(-c3ccc(C(F)(F)F)cc3)no2)cc1)C(=O)O [Example 15, 2-methyl-2-{4-[3-(4-trifluoromethyl-phenyl)-[1,2,4]oxadiazol-5-ylmethoxy]-phenoxy}-propionic acid] | 164 °C | 10000 nM | 98 nM | 4510 nM |
| CC(C)c1ccc(-c2nc(COc3ccc(OC(C)(C)C(=O)O)cc3)no2)cc1 [Example 16, 2-methyl-2-{4-[5-(4-isopropyl-phenyl)-[1,2,4]oxadiazol-3-ylmethoxy]-phenoxy}propionic acid] | – | 10000 nM | 29 nM | 8400 nM |
| CC(C)(Oc1ccc(OCc2noc(-c3ccc(C(C)(C)C)cc3)n2)cc1)C(=O)O [Example 17, 2-methyl-2-{4-[5-(4-tert-butyl-phenyl)-[1,2,4]oxadiazol-3-ylmethoxy]-phenoxy}propionic acid] | – | 10000 nM | 40 nM | – |
